Values quoted from earlier work, collected in patent US9533949B2, “Processes for the preparation of 3-alkyl indoles” (APOTEX PHARMACHEM INC., priority 2012, dated 2017).

Experiments:
[1] = biological target: T1, insulin-like growth factor-I receptor (IGF-1R) (Homo sapiens, UniProt P08069); details: allosteric inhibitor
[2] = biological target: T1, insulin-like growth factor-I receptor (IGF-1R); details: allosteric inhibitor; remark: listed apart in the source
insulin receptor = insulin receptor (Homo sapiens, UniProt P06213)
Sequence of insulin receptor (P06213 28-1382, species assumed): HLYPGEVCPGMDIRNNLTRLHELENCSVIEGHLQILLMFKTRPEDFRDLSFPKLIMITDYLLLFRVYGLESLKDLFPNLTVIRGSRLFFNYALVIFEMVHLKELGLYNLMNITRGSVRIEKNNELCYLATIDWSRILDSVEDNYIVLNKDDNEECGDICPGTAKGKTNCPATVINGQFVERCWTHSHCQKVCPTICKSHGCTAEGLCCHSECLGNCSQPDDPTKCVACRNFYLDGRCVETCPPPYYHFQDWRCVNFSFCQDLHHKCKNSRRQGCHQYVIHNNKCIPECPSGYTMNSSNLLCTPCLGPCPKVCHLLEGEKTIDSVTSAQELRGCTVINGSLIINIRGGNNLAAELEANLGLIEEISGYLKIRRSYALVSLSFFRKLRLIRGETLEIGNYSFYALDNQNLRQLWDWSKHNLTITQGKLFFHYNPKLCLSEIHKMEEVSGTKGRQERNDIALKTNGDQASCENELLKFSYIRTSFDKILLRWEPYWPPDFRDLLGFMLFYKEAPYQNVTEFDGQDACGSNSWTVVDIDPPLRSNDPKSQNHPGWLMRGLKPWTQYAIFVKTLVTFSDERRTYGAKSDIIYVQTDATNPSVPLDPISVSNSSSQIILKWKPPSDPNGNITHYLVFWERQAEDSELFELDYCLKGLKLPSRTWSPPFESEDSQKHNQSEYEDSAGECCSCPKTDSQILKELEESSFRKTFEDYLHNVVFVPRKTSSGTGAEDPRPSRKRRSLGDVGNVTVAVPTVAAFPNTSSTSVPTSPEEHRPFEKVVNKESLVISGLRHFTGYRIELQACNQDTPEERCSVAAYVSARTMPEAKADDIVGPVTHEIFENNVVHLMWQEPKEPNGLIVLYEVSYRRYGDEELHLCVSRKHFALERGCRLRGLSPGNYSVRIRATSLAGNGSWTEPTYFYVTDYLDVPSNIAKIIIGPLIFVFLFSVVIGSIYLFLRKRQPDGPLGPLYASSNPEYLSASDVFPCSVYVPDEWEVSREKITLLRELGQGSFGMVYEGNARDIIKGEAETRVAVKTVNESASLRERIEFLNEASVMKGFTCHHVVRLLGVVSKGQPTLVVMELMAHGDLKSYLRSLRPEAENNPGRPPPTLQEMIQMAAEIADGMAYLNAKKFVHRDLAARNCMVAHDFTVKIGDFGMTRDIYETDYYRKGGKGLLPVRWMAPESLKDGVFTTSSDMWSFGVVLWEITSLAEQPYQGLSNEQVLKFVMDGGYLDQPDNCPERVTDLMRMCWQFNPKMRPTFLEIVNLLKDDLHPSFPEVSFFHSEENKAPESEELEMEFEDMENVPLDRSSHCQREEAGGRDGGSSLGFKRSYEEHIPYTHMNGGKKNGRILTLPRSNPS

D2 receptor = D2 receptor (Homo sapiens, UniProt P14416); details: selectivity to other GPCRs
Sequence of D2 receptor (P14416 whole entry): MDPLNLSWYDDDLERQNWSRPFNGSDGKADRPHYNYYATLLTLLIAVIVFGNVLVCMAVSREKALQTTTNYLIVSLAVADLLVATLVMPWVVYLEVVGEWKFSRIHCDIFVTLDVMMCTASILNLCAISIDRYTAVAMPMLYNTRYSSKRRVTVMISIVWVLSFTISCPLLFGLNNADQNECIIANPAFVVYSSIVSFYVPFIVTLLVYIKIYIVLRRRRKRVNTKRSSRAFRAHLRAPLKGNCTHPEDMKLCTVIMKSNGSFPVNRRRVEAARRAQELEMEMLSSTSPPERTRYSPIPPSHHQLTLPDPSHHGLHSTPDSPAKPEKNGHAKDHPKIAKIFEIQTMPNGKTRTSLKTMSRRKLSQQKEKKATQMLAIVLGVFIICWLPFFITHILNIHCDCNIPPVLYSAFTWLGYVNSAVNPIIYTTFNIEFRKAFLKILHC

T1 sequence (P08069 31-1367, species assumed): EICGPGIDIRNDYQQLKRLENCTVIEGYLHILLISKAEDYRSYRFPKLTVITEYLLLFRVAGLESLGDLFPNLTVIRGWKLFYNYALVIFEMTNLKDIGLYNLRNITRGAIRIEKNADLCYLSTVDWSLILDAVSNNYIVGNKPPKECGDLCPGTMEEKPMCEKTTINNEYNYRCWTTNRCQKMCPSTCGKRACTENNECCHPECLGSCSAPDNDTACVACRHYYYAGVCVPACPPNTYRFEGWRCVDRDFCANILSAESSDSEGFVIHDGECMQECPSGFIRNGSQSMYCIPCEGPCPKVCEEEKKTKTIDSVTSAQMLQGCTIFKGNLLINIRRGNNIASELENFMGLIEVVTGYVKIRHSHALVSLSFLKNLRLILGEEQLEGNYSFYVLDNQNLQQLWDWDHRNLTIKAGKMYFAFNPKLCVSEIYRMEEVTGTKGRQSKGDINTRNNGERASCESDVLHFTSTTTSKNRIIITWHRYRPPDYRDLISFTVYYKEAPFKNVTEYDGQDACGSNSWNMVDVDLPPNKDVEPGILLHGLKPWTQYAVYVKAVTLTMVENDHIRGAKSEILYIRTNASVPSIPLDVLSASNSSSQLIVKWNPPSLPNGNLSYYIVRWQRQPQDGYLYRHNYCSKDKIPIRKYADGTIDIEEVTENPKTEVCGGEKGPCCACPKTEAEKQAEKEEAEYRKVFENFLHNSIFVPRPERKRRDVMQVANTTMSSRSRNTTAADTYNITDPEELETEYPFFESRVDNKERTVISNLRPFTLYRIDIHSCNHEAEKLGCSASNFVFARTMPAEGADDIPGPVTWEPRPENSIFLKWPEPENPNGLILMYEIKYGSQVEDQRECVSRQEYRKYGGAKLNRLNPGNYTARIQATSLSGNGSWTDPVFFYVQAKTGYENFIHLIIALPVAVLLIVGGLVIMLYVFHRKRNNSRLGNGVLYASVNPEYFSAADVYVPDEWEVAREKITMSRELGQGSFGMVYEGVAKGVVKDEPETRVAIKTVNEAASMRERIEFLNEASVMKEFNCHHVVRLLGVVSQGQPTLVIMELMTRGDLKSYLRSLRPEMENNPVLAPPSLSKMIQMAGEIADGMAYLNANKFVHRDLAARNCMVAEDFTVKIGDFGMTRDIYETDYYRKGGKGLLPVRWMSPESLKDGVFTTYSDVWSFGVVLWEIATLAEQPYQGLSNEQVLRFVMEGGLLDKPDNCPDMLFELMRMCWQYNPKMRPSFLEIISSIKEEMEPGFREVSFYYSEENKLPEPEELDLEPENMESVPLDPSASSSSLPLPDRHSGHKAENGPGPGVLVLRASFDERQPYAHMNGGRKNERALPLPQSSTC

| Structure (SMILES) | biochemical IGF-1R activity [1] | cellular IGF-1R activity [2] | no relevant interference with cellular insulin receptor signaling up to (insulin receptor) [µM] | IC50 (D2 receptor) [nM] |
| --- | --- | --- | --- | --- |
| N#Cc1ccc2[nH]cc(CCCCN3CCC(NC(=O)c4cccc5c(C#N)c[nH]c45)CC3)c2c1 [compound 10, 3-Cyano-1H-indole-7-carboxylic acid {1-[4-(5-cyano-1H-indol-3-yl)butyl]piperidin-4-yl}amide] | nanomolar | micromolar | > 30 | – |
| N#Cc1ccc2[nH]cc(CCCCN3CCN(c4ccc5oc(C(N)=O)cc5c4)CC3)c2c1 [vilazodone, 5-{4-[4-(5-Cyano-3-indolyl)butyl]-1-piperazinyl}benzofuran-2-carboxamide] | – | – | – | 666 |
